Results: US7608619B2, “Substituted oxazole compounds with analgesic activity” (Gruenenthal GmbH, priority 2005, dated 2009)

Target: T1, human μ-opiate receptor (Homo sapiens, UniProt P35372)
T1 construct: purchased Nen company, Zaventem, Belgium RB-HOM; host or cells: CHO-K1 cells (membrane preparation)
Experiment: Affinity for the human μ-opiate receptor ([3H]-naloxone displacement, SPA, CHO-K1 membrane preparation)
Details: test substance 1 μmole/l; displacement of 1 nmole/l [3H]-naloxone; percentage inhibition of the specific binding; read-out: μ-opioid receptor, % inhibition [1 μM]
Procedure: Method for Determining the Affinity for the Human μ-Opiate Receptor
The receptor affinity for the human μ-opiate receptor is determined in a homogeneous batch in microtiter plates. For this purpose dilution series of the substances to be tested are incubated for 90 minutes at room temperature with a receptor membrane preparation (15-40 μg protein/250 μl incubation batch) of CHO-K1 cells, which express the human μ-opiate receptor (RB-HOM receptor membrane preparation from the Nen company, Zaventem, Belgium), in the presence of 1 nmole/l of the radioactive ligand [^3H]-naloxone (NET719, Nen company, Zaventem, Belgium) and 1 mg WGA-SPA beads (wheat germ agglutinin SPA beads from Amersham/Pharmacia, Freiburg, Germany) in a total volume of 250 μl. 50 mmole/l of Tris-HCl supplemented with 0.05% sodium azide and with 0.06% bovine serum albumin is used as incubation buffer. In order to determine the non-specific binding, 25 μmole/l of naloxone is additionally added. After the end of the 90 minutes' incubation time the microtiter plates are centrifuged for 20 minutes at 1000 g and the radioactivity is measured in a beta counter (Microbeta-Trilux, PerkinElmer Wallac, Freiburg, Germany). The percentage displacement of the radioactive ligand from its binding to the human μ-opiate receptor at a concentration of the test substances of 1 μmole/l is determined and is given as percentage inhibition of the specific binding.

T1 sequence (P35372 whole entry): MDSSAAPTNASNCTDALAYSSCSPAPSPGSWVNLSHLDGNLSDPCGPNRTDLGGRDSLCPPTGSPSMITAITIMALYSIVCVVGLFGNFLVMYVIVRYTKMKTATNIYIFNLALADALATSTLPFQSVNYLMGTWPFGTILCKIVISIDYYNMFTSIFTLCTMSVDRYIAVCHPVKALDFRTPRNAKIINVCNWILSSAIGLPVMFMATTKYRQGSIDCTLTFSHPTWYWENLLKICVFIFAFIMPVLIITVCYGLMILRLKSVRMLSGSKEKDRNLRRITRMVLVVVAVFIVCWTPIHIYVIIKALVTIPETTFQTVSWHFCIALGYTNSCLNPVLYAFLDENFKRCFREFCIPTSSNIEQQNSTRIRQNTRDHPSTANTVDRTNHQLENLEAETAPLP

First: CCN(CC)C(CC1CCC(C(c2ccc(F)cc2)N(C)C)CC1)c1nc(Cc2ccccc2)c(N2CCN(Cc3ccccc3)CC2)o1 (stereo not shown) [compound 68, (1-[4-benzyl-5-(4-benzyl-piperazin-1-yl)-oxazol-2-yl]-2-{4-[dimethylamino-(4-fluorophenyl)-methyl]-cyclohexyl}-ethyl)-diethylamine]
Second: CCN(CC)C(CC1CCC(C(c2cccs2)N(C)C)CC1)c1nc(Cc2ccccc2)c(N2CCN(Cc3ccccc3)CC2)o1 (stereo not shown) [compound 78, {1-[4-benzyl-5-(4-benzyl-piperazin-1-yl)-oxazol-2-yl]-2-[4-(dimethylamino-thiophen-2-yl-methyl)-cyclohexyl]-ethyl}-diethylamine]
The inhibition at 1 µM of the first is lower: 60% for the first, 100% for the second.

Going from `CCN(CC)C(CC1CCC(C(c2ccc(F)cc2)N(C)C)CC1)c1nc(Cc2ccccc2)c(N2CCC(C)CC2)o1` (stereo not shown) [compound 69, (1-[4-benzyl-5-(4-methylpiperidin-1-yl)-oxazol-2-yl]-2-{4-[dimethylamino-(4-fluorophenyl)-methyl]-cyclohexyl}-ethyl)-diethylamine] to `CCN(CC)C(CC1CCC(C(c2cccs2)N(C)C)CC1)c1nc(Cc2ccccc2)c(N2CCC(C)CC2)o1` (stereo not shown) [compound 79, {1-[4-benzyl-5-(4-methylpiperidin-1-yl)-oxazol-2-yl]-2-[4-(dimethylamino-thiophen-2-yl-methyl)-cyclohexyl]-ethyl}-diethylamine], the inhibition at 1 µM rises from 82% to 97%.

First: CCN(CC)C(CC1CCC(C(c2ccc(F)cc2)N(C)C)CC1)c1nc(Cc2ccccc2)c(N(C)Cc2ccccc2)o1 (stereo not shown) [compound 70, Benzyl-[4-benzyl-2-(1-diethylamino-2-{4-[dimethylamino-(4-fluorophenyl)-methyl]-cyclohexyl}-ethyl)-oxazol-5-yl]-methylamine]
Second: CCN(CC)C(CC1CCC(C(c2ccc(Cl)cc2)N(C)C)CC1)c1nc(Cc2ccccc2)c(N(C)CCc2ccccc2)o1 (stereo not shown) [compound 89, [4-benzyl-2-(2-{4-[(4-chlorophenyl)-dimethylaminomethyl]-cyclohexyl}-1-diethylaminoethyl)-oxazol-5-yl]-methyl-phenethylamine]
The inhibition at 1 µM of the first is lower: 60% for the first, 87% for the second.

Going from `CC1CCN(c2oc(C(CC3CCC(C(c4ccc(F)cc4)N(C)C)CC3)N3CCN(Cc4ccccc4)CC3)nc2Cc2ccccc2)CC1` (stereo not shown) [compound 71, [{4-[2-[4-benzyl-5-(4-methylpiperidin-1-yl)-oxazol-2-yl]-2-(4-benzyl-piperazin-1-yl)-ethyl]-cyclohexyl}-(4-fluorophenyl)-methyl]-dimethylamine] to `CC1CCN(c2oc(C(CC3CCC(C(c4cccs4)N(C)C)CC3)N3CCN(Cc4ccccc4)CC3)nc2Cc2ccccc2)CC1` (stereo not shown) [compound 83, ({4-[2-[4-benzyl-5-(4-methylpiperidin-1-yl)-oxazol-2-yl]-2-(4-benzyl-piperazin-1-yl)-ethyl]-cyclohexyl}-thiophen-2-yl-methyl)-dimethylamine], the inhibition at 1 µM rises from 67% to 97%.

Compared with `CN(C)C(c1cccs1)C1CCC(CC(c2nc(Cc3ccccc3)c(N3CCC(Cc4ccccc4)CC3)o2)N2CCCCC2)CC1` (stereo not shown) [compound 72, [(4-{2-[4-benzyl-5-(4-benzyl-piperidin-1-yl)-oxazol-2-yl]-2-piperidin-1-yl-ethyl}-cyclohexyl)-thiophen-2-yl-methyl]-dimethylamine], `CN(C)C(c1cccs1)C1CCC(CC(c2nc(Cc3ccccc3)c(N3CCN(Cc4ccccc4)CC3)o2)N2CCCCC2)CC1` (stereo not shown) [compound 73, [(4-{2-[4-benzyl-5-(4-benzyl-piperazin-1-yl)-oxazol-2-yl]-2-piperidin-1-yl-ethyl}-cyclohexyl)-thiophen-2-yl-methyl]-dimethylamine] is higher in inhibition at 1 µM: 69% for the first, 94% for the second.

First: CC1CCN(c2oc(C(CC3CCC(C(c4cccs4)N(C)C)CC3)N3CCCCC3)nc2Cc2ccccc2)CC1 (stereo not shown) [compound 74, [(4-{2-[4-benzyl-5-(4-methylpiperidin-1-yl)-oxazol-2-yl]-2-piperidin-1-yl-ethyl}-cyclohexyl)-thiophen-2-yl-methyl]-dimethylamine]
Second: CN(C)C(c1cccs1)C1CCC(CC(c2nc(Cc3ccccc3)c(N3CCN(c4ccccc4)CC3)o2)N2CCCCC2)CC1 (stereo not shown) [compound 76, [(4-{2-[4-benzyl-5-(4-phenyl-piperazin-1-yl)-oxazol-2-yl]-2-piperidin-1-yl-ethyl}-cyclohexyl)-thiophen-2-yl-methyl]-dimethylamine]
The inhibition at 1 µM of the first is lower: 79% for the first, 94% for the second.

Going from `CN(Cc1ccccc1)c1oc(C(CC2CCC(C(c3cccs3)N(C)C)CC2)N2CCCCC2)nc1Cc1ccccc1` (stereo not shown) [compound 75, Benzyl-(4-benzyl-2-{2-[4-(dimethylaminothiophen-2-yl-methyl)-cyclohexyl]-1-piperidin-1-yl-ethyl}-oxazol-5-yl)-methylamine] to `CN(Cc1ccccc1)c1oc(C(CC2CCC(C(c3cccs3)N(C)C)CC2)N2CCN(Cc3ccccc3)CC2)nc1Cc1ccccc1` (stereo not shown) [compound 84, Benzyl-(4-benzyl-2-{1-(4-benzyl-piperazin-1-yl)-2-[4-(dimethylamino-thiophen-2-yl-methyl)-cyclohexyl]-ethyl}-oxazol-5-yl)-methylamine], the inhibition at 1 µM falls from 90% to 88%.

Compared with `CCN(CC)C(CC1CCC(C(c2cccs2)N(C)C)CC1)c1nc(Cc2ccccc2)c(N2CCC(Cc3ccccc3)CC2)o1` (stereo not shown) [compound 77, {1-[4-benzyl-5-(4-benzyl-piperidin-1-yl)-oxazol-2-yl]-2-[4-(dimethylamino-thiophen-2-yl-methyl)-cyclohexyl]-ethyl}-diethylamine], `CCN(CC)C(CC1CCC(C(c2cccs2)N(C)C)CC1)c1nc(Cc2ccccc2)c(N(C)Cc2ccccc2)o1` (stereo not shown) [compound 80, Benzyl-(4-benzyl-2-{1-diethylamino-2-[4-(dimethylaminothiophen-2-yl-methyl)-cyclohexyl]-ethyl)-oxazol-5-yl)-methylamine] is higher in inhibition at 1 µM: 91% for the first, 93% for the second.

Going from `CN(C)C(c1cccs1)C1CCC(CC(c2nc(Cc3ccccc3)c(N3CCC(Cc4ccccc4)CC3)o2)N2CCN(Cc3ccccc3)CC2)CC1` (stereo not shown) [compound 81, ({4-[2-[4-benzyl-5-(4-benzyl-piperidin-1-yl)-oxazol-2-yl]-2-(4-benzyl-piperazin-1-yl)-ethyl]-cyclohexyl}-thiophen-2-yl-methyl)-dimethylamine] to `CN(C)C(c1cccs1)C1CCC(CC(c2nc(Cc3ccccc3)c(N3CCN(Cc4ccccc4)CC3)o2)N2CCN(Cc3ccccc3)CC2)CC1` (stereo not shown) [compound 82, ({4-[2-[4-benzyl-5-(4-benzylpiperazin-1-yl)-oxazol-2-yl]-2-(4-benzyl-piperazin-1-yl)-ethyl]-cyclohexyl}-thiophen-2-yl-methyl)-dimethylamine], the inhibition at 1 µM rises from 81% to 83%.

Compared with `CN(C)C(c1cccs1)C1CCC(CC(c2nc(Cc3ccccc3)c(N3CCN(c4ccccc4)CC3)o2)N2CCN(Cc3ccccc3)CC2)CC1` (stereo not shown) [compound 85, ({4-[2-[4-benzyl-5-(4-phenyl-piperazin-1-yl)-oxazol-2-yl]-2-(4-benzyl-piperazin-1-yl)-ethyl]-cyclohexyl}-thiophen-2-yl-methyl)-dimethylamine], `CN(CCc1ccccc1)c1oc(C(CC2CCC(C(c3ccc(Cl)cc3)N(C)C)CC2)N2CCCCC2)nc1Cc1ccccc1` (stereo not shown) [compound 86, [4-benzyl-2-(2-{4-[(4-chlorophenyl)-dimethylaminomethyl]-cyclohexyl}-1-piperidin-1-yl-ethyl)-oxazol-5-yl]-methylphenethylamine] is lower in inhibition at 1 µM: 91% for the first, 63% for the second.

Going from `CCN(CC)c1oc(C(CC2CCC(C(c3ccc(Cl)cc3)N(C)C)CC2)N2CCCCC2)nc1Cc1ccccc1` (stereo not shown) [compound 87, [4-benzyl-2-(2-{4-[(4-chlorophenyl)-dimethylaminomethyl]-cyclohexyl}-1-piperidin-1-yl-ethyl)-oxazol-5-yl]-diethylamine] to `CCN(CC)c1oc(C(CC2CCC(C(c3ccc(Cl)cc3)N(C)C)CC2)N(CC)CC)nc1Cc1ccccc1` (stereo not shown) [compound 90, [4-benzyl-2-(2-{4-[(4-chlorophenyl)-dimethylaminomethyl]-cyclohexyl}-1-diethylaminoethyl)-oxazol-5-yl]-diethylamine], the inhibition at 1 µM rises from 64% to 89%.

First: CCN(CC)C(CC1CCC(C(c2ccc(Cl)cc2)N(C)C)CC1)c1nc(Cc2ccccc2)c(N2CC(C)CC(C)C2)o1 (stereo not shown) [compound 88, (1-[4-benzyl-5-(3,5-dimethylpiperidin-1-yl)-oxazol-2-yl]-2-{4-[(4-chlorophenyl)-dimethylaminomethyl]-cyclohexyl}-ethyl)-diethylamine]
Second: CCN(CC)C(CC1CCC(C(c2ccc(Cl)cc2)N(C)C)CC1)c1nc(Cc2ccccc2)c(N2CCSCC2)o1 (stereo not shown) [compound 91, (1-(4-benzyl-5-thiomorpholin-4-yl-oxazol-2-yl)-2-{4-[(4-chlorophenyl)-dimethylaminomethyl]-cyclohexyl}-ethyl)-diethylamine]
The inhibition at 1 µM of the first is higher: 79% for the first, 75% for the second.

`CN(C)C(c1ccc(Cl)cc1)C1CCC(CC(c2nc(Cc3ccccc3)c(N3CCSCC3)o2)N(C)c2ccccc2)CC1` (stereo not shown) [compound 92, (1-(4-benzyl-5-thiomorpholin-4-yl-oxazol-2-yl)-2-{4-[(4-chlorophenyl)-dimethylaminomethyl]-cyclohexyl}-ethyl)-methylphenylamine] was tested, and the inhibition at 1 µM was 87%.
